Laboratory results from patent publication US20190100549A1, “FLAVONOIDE-TYPE COMPOUNDS BEARING AN O-RHAMNOSYL RESIDUE” (Universitaet Hamburg, priority 2016, published 2019).
Values joined by “and” are separate entries in the source; they are usually repeats but may differ in a detail not shown here. Identical values can stand only once. Like-named read-outs stand apart in the source and are kept apart here.

Key:
PGE2 = PGE2 release in stimulated NHEK (ELISA); assay type: cell-based, human; settings: Homo sapiens, NHEK, PMA 1 μg/ml; for inhibition at 1 µM: 10^−6 M
Description: (§1) NHEK were pre-incubated for 24 h with the test compounds. The medium was replaced with the NHEK culture medium containing the inflammatory inducers (PMA or Poly I:C) and incubated for another 24 hours. Positive and negative controls ran in parallel. At the endpoint the culture supernatants were quantified of secreted IL-8, PGE2 and TNF-α by means of ELISA.

[1] = Water solubility of naringenin-5-rhamnoside (0.2 μm filtered solutions, HPLC); assay type: physicochemical; settings: read-out: maximum water solubility
Description: FIG. 1: Determination of solubility of naringenin-5-O-α-L-rhamnoside (NR1) in water. Defined concentrations of NR1 were 0.22 μm-filtered before injection to HPLC. Soluble concentrations were calculated from peak areas by determined regression curves.
FIG. 1 illustrates the amounts of Naringenin-5-rhamnoside recaptured from a RP18 HPLC-column after loading of a 0.2 μm filtered solution containing defined amounts up to 25 mM of the same. Amounts were calculated from a regression curve.

[2] = system: normal human epidermal keratinocytes (NHEK); experiment: Cytotoxicity on NHEK monolayer cultures (MTT reduction assay and morphological observation); assay type: cell-based; settings: for Viability (%): single values, listed as Nar-5-Rha
Description: To determine the cytotoxicity of flavonoid-5-O-α-L-rhamnosides tests were performed versus their aglycon derivatives in cell monolayer cultures. For this purpose concentrations ranging from 1 μM to 250 μM were chosen. The viability of normal human epidermal keratinocytes (NHEK) was twice evaluated by a MTT reduction assay and morphological observation with a microscope. NHEK were grown at 37° C. and 5% CO2 aeration in Keratinocyte-SFM medium supplemented with epidermal growth factor (EGF) at 0.25 ng/mL, pituitary extract (PE) at 25 μg/mL and gentamycin (25 μg/mL) for 24 h and were used at the 3rd passage. For cytotoxicity testing, pre-incubated NHEK were given fresh culture medium containing a specific concentration of test compound and incubated for 24 h. After a medium change at same test concentration cells were incubated a further 24 h until viability was determined. Test results are given in Table B2 and illustrated in FIG. 10.

IL-8 = IL-8 release in stimulated NHEK (ELISA); assay type: cell-based, human; settings: Homo sapiens, NHEK
Description: as §1

TNF-α = TNF-α release in stimulated NHEK (ELISA); assay type: cell-based, human; settings: Homo sapiens, NHEK, poly(I:C), read-out: TNFα Inhibition %
Description: as §1

[3] = system: lipid peroxides (C11-fluor) in NHEK cells; experiment: Protection against UV-induced lipid peroxide in NHEK (C11-fluor probe, flow cytometry); assay type: cell-based, human
Description: (§2) Pre-incubated NHEK were incubated with the test compound for 24 h. Then the specific fluorescence probe for the measurement of hydrogen peroxide (DHR) or lipid peroxides (C11-fluor) was added and incubated for 45 min. Irradiation occurred with in H2O2 determination UVB at 180 mJ/cm^2 (+UVA at 2839 mJ/cm^2) or UVB at 240 mJ/cm^2 (+UVA at 3538 mJ/cm^2) in lipid peroxide, respectively, using a SOL500 Sun Simulator lamp. After irradiation the cells were post-incubated for 30 min before flow-cytometry analysis.

fibronectin = experiment: Fibronectin synthesis in NHDF (ELISA); assay type: cell-based, human; settings: 10 ng/ml, 72 hours
Description: (§3) Tests were performed with normal human dermal fibroblast cultures at the 8th passage. Cells were grown in DMEM supplemented with glutamine at 2 mM, penicillin at 50 U/mL and streptomycin (50 μg/mL) and 10% of fetal calf serum (FCS) at 37° C. in a 5% CO2 atmosphere.
(§4) Fibroblasts were cultured for 24 hours before the cells were incubated with the test compounds for further 72 hours. After the incubation the culture supernatants were collected in order to measure the released quantities of procollagen I, VEGF, and fibronectin by means of ELISA. Reference test compounds were vitamin C (procollagen I), PMA (VEGF), and TGF-β (fibronectin).

VEGF = VEGF release in NHDF (ELISA); assay type: cell-based, human; settings: 1 μg/ml, 72 hours
Description: as §3, §4

[4] = system: hydrogen peroxide (DHR) in NHEK cells; experiment: Protection against UV-induced H2O2 stress in NHEK (DHR probe, flow cytometry); assay type: cell-based, human; settings: 180 mJ/cm^2 UVB (2839 mJ/cm^2 UVA); for H2O2 (AU) (DHR GMFI): single values
Description: as §2

procollagen I = experiment: Procollagen I synthesis in NHDF (ELISA); assay type: cell-based, human; settings: 20 μg/ml, 72 hours
Description: as §3, §4

[5] = 50 μM, 240 mJ/cm^2 UVB (3538 mJ/cm^2 UVA)
[6] = 50 μM, 240 mJ/cm^2 UVB (3538 mJ/cm^2 UVA), single values

Work on `C[C@@H]1C[C@H]2[C@@H]3CCC4=CC(=O)C=C[C@]4(C)[C@@]3(F)[C@@H](O)C[C@]2(C)[C@@]1(O)C(=O)CO` [Dexamethasone, reference compound] yielded an inhibition at 1 µM (PGE2) of 9%.
In the case of `C[C@@H]1O[C@@H](Oc2cc(O)cc3c2C(=O)CC(c2ccc(O)cc2)O3)[C@H](O)[C@H](O)[C@H]1O` (mixture of isomers) [NR1, Naringenin-5-O-α-L-rhamnoside], the solubility ([1]; equivalent of 10 mmol/L) is reported as about 4200 µg/mL, the solubility [1] is reported as about 10 mM and the “Viability (%) Mean” value ([2]; 1 μM) is reported as 101%. For the same compound, the “Viability (%)” value ([2]; 1 μM) was 91% and 111%, the “Viability (%) Mean” value ([2]; 2.5 μM) was 93% and the “Viability (%)” value ([2]; 2.5 μM) was 92% and 93%. For the same compound, the “Viability (%) Mean” value ([2]; 5 μM) was 86%, the “Viability (%)” value ([2]; 5 μM) was 85% and 88% and the “Viability (%) Mean” value ([2]; 10 μM) was 97%. The “Viability (%)” value ([2]; 10 μM) was 94% and 100%, the “Viability (%) Mean” value ([2]; 25 μM) was 95% and the “Viability (%)” value ([2]; 25 μM) was 92% and 98%. For the same compound, the “Viability (%) Mean” value ([2]; 50 μM) was 84%, the “Viability (%)” value ([2]; 50 μM) was 78% and 91% and the “Viability (%) Mean” value ([2]; 100 μM) was 86%. The “Viability (%)” value ([2]; 100 μM) was 82% and 90%, the “Viability (%) Mean” value ([2]; 250 μM) was 83% and the “Viability (%)” value ([2]; 250 μM) was 79% and 87%. The inhibition at 100 µM (PGE2; 100 μM) was 21%, the inhibition at 100 µM (IL-8; PMA) was 12% and the inhibition at 100 µM (IL-8; poly(I:C)) was 14%. The inhibition at 100 µM (TNF-α) was 8% and the “anti-oxidative function on lipid peroxides (in words)” value [3] was “anti-oxidative function”.
In the case of TGF-β, the “Fibronectin % Control” value (fibronectin) is reported as 181%, the “Fibronectin % Stimulation” value (fibronectin) is reported as 81% and the “Fibronectin” value (fibronectin; single values) is reported as 10870 ng/mL and 11178 ng/mL and 11128 ng/mL.
With `CCCCCCCCCCCCCC(=O)O[C@@H]1[C@@H](C)[C@@]2(O)[C@@H](C=C(CO)C[C@]3(O)C(=O)C(C)=C[C@@H]23)[C@@H]2C(C)(C)[C@]12OC(C)=O` [PMA, reference compound] the “Mean VEGF” value (VEGF) was 148 pg/mL, the “VEGF % Control” value (VEGF) was 205% and the “VEGF % Stimulation” value (VEGF) was 105%. For the same compound, the “VEGF” value (VEGF; single values) was 150 pg/mL and 143 pg/mL.
In the case of `COc1ccc(O)c(C(C)(C)C)c1` [BHA], the “H2O2 % irradiated control” value ([4]; 100 μM) is reported as 42%, the “H2O2 (AU) Mean” value ([4]; 100 μM) is reported as 776 AU and the “H2O2 Protection %” value ([4]; 100 μM) is reported as 70%. The “H2O2 (AU) (DHR GMFI)” value ([4]; 100 μM) was 740 AU and 834 AU and 754 AU.
In the case of `O=C1O[C@H]([C@@H](O)CO)C(O)=C1O` [Vitamin C], the “Procollagen I % Control” value (procollagen I) is reported as 316%, the “Procollagen I % Stimulation” value (procollagen I) is reported as 216% and the “Procollagen I Mean” value (procollagen I) is reported as 5272 ng/mL. The “Procollagen I” value (procollagen I; single values) was 4739 ng/mL and 5854 ng/mL and 5225 ng/mL.
With `COc1ccc2c(c1)c(CC(=O)O)c(C)n2C(=O)c1ccc(Cl)cc1` [Indomethacin, reference compound] the inhibition at 1 µM (PGE2) was 106%.
With `Cc1c(C)c2c(c(C)c1O)CC[C@@](C)(CCC[C@H](C)CCC[C@H](C)CCCC(C)C)O2` [Vit. E] the “H2O2 % irradiated control” value ([4]; 50 μM) was 35%, the “H2O2 (AU) Mean” value ([4]; 50 μM) was 655 AU and the “H2O2 Protection %” value ([4]; 50 μM) was 78%. The “H2O2 (AU) (DHR GMFI)” value ([4]; 50 μM) was 628 AU and 650 AU and 687 AU.
In the case of `Cc1cc(C(C)(C)C)c(O)c(C(C)(C)C)c1` [BHT], the “C11-fluor(AU) Mean (1/GMFI)” value [3, 5] is reported as 3.3E−04 AU, the “lipid peroxide % Irradiated control” value [3, 5] is reported as 72% and the “lipid peroxide Protection %” value [3, 5] is reported as 37%. The “C11-fluor(AU) 1/GMFI” value [3, 6] was 3.2E−04 AU and 3.3E−04 AU and 3.5E−04 AU and the “C11-fluor(AU) GMFI” value [3, 6] was 3139 AU and 3047 AU and 2877 AU.
